One assay relates to Callosobruchus chinensis. The assay can be described thus: Test 7: mortality of adults of Callosobruchus chinensis on film in Petri-dish. Format: in vivo. To be noted: 400 μg per Petri-dish of 9 cm, 25° C., 24 hours, read-out: Percent mortality. How it is done: Each active ingredient was dissolved in acetone to prepare each solution having the specific concentration. 1 Ml. of the solution (400 μg. of each active ingredient) was uniformly adhered on the inner bottom surface of Petri-dish having a diameter of 9 cm to form a film. In the dish, 15 of adults of Callosobruchus chinensis were charged and the dish was covered with a cap and kept in a constant temperature chamber at 25° C. for 24 hours. Each percent mortality was calculated as that of Test 6.

The next assay deals with Rhizoctonia solani. The assay can be described thus: whole plant or invertebrate. Format: in vivo, Rhizoctonia solani (rice plant, Chukyo Asahi). To be noted: in Oryza sativa, 120 h, read-out: Preventive value.
Another assay has as its system Pyricularia orzae. The assay can be described thus: whole plant or invertebrate. Format: in vivo, Pyricularia orzae (rice plant, Chukyo Asahi). The settings on record: in Oryza sativa, 120 h, read-out: Protective value.
The next assay concerns Plutella xylostella. Description: Test 11: mortality of larvae of Plutella xylostella on treated cabbage leaf. In kind it is in vivo. To be noted: foliar, 192 h, leaf dipped, emulsifiable concentrate Composition No. 3, eight days, read-out: Percent mortality. From the text:
Each emulsifiable concentrate of each active ingredient as Composition No. 3 was dispersed in water at a concentration of 800 ppm. Each leaf of cabbage was dipped into each emulsion for about 10 seconds and taken up and dried in air.
A wet filter paper was put in each Petri dish (diameter of 9 cm), and each treated leaf was put on the filter paper. Larvae of Plutella xylostella at 2nd to 3rd instar were charged and the dish was covered with a cap and kept in a constant temperature chamber with lighting at 28° C. Eight days after the charge, mortality was measured and each percent mortality was calculated.

Another assay relates to Tetranychus telarius (L). Description: Test 6: mortality of larvae and adults of Tetranychus telarius on kidney bean leaf. To be noted: foliar, 72 h, leaf dipped, wettable powder of Composition No. 5, three days after treatment, read-out: Percent mortality. Format: in vivo. As to the method: Young seedling of kidney bean treated to cut off leaves except one primordial leaf was transplanted in a cup and about 30 of larvae and adults of Tetranychus telarius (L) were inoculated on the primordial leaf. This was dipped for 10 seconds in each solution obtained by diluting each wettable powder of Composition No. 5 containing each active ingredient with water at the concentration of 800 ppm and was dried in air and was kept in a constant temperature chamber with lighting at 28° C. Three days after the treatment, mortality was measured and each percent mortality was calculated as follows. [formula]

The subject of a further assay is Botrytis cinerea. Description: Test 9: protective value on cucumber inoculated with Botrytis cinerea. In kind it is in vivo, Botrytis cinerea (cucumber plant, Suyo). To be noted: 72 h; for pest or weed control at 250 ppm: 10 ml sprayed, lesion length three days after inoculation. How it is done: In each unglazed pot having a diameter of 9 cm, cucumber plant (Suyo) was cultured. At one leaf stage, 10 ml. of each solution of each active ingredient having a concentration of 250 ppm was sprayed by a spray gun. After maintaining the pot in a green-house at 24° to 25° C. for one day, a disc (punched agar disc) obtained by culturing Botrytis cinerea on a potato-glucose-agar medium (PDA medium) was put on the leaf of cucumber to inoculate them. Three days after the inoculation, lengths of lesions were measured and each protective value was calculated as Test 2.
In accordance with the test, except the concentration of the active ingredient was decreased, the comparative tests of Compound No. 7 and Reference compound were carried out.

In another assay the test system is Sphaerotheca fuliginea. The assay can be described thus: whole plant or invertebrate. In kind it is in vivo, Sphaerotheca fuliginea (cucumber plant, Suyo). The settings on record: Podosphaera fuliginea, in Cucumis sativus, 240 h, read-out: Protective value.

Broadly, the mortality is the share of the test organisms that died. As for `O=[N+]([O-])c1cc(C(F)(F)F)cc([N+](=O)[O-])c1Nc1ncc(C(F)(F)F)cc1Cl` [Compound No. 2], the mortality at 400 µg/dish in the assay on Callosobruchus chinensis turned out to be 100%. For the same compound, the pest or weed control at 100 ppm in the assay on Rhizoctonia solani and in the assay with Pyricularia orzae was 100% each time.

Take `O=[N+]([O-])c1ccc(Nc2c(Cl)c(F)nc(F)c2Cl)c(C(F)(F)F)c1` [Reference compound, N-(2,6-difluoro-3,5-dichloro-4-pyridyl)-N-(4-nitro-2-trifluoromethylphenyl)amine, reference compound]: the pest or weed control at 12.5 ppm in the assay on Pyricularia orzae was determined as 0%. In the assay with Pyricularia orzae, the pest or weed control at 25 ppm stood at 0%. In addition, the mortality at 800 ppm stood at 0% in the assay on Plutella xylostella and 40% with Tetranychus telarius (L). Also, the pest or weed control at 62.5 ppm with Botrytis cinerea (62.5 ppm) amounted to 0%.

On to `O=[N+]([O-])c1cc(C(F)(F)F)cc([N+](=O)[O-])c1Nc1c(Cl)cncc1Cl` [compound 15, N-(3,5-dichloro-4-pyridyl)-2,6-dinitro-4-trifluoromethylaniline], for which the pest or weed control at 100 ppm with Rhizoctonia solani and in the assay on Pyricularia orzae was 100% in each case. In addition, the mortality at 800 ppm in the assay with Plutella xylostella and with Tetranychus telarius (L) was 100% each time. Also, the pest or weed control at 500 ppm with Sphaerotheca fuliginea came out at 100%.

On to `O=[N+]([O-])c1cc(C(F)(F)F)c(Cl)c([N+](=O)[O-])c1Nc1ncc(Cl)cc1Br` [compound 18], for which the pest or weed control at 100 ppm in the assay on Rhizoctonia solani and with Pyricularia orzae was 100% in each case. In addition, the pest or weed control at 250 ppm with Botrytis cinerea was 100%.

In the case of `O=[N+]([O-])c1cc(C(F)(F)F)c(Cl)c([N+](=O)[O-])c1Nc1ccc(C(F)(F)F)cn1` [compound 19], the pest or weed control at 100 ppm in the assay on Rhizoctonia solani and in the assay on Pyricularia orzae was 100% in each case. Further, the pest or weed control at 250 ppm with Botrytis cinerea amounted to 100%.

Turning to `O=[N+]([O-])c1cc(C(F)(F)F)c(Cl)c([N+](=O)[O-])c1Nc1ncc(C(F)(F)F)cc1Br` [compound 21], the pest or weed control at 100 ppm in the assay on Pyricularia orzae worked out at 100%. Moreover, the pest or weed control at 500 ppm in the assay with Sphaerotheca fuliginea came out at 100%. This compound had a pest or weed control at 250 ppm in the assay on Botrytis cinerea of 100%.

Take `O=[N+]([O-])c1cc(C(F)(F)F)cc([N+](=O)[O-])c1Nc1ncc(C(F)(F)F)cc1Br` [compound 22]: the pest or weed control at 100 ppm in the assay on Pyricularia orzae amounted to 100%. Also, the pest or weed control at 500 ppm in the assay on Sphaerotheca fuliginea stood at 100%. The mortality at 800 ppm with Tetranychus telarius (L) worked out at 100%. The compound also yielded a pest or weed control at 250 ppm in the assay on Botrytis cinerea of 100%.

For the compound `O=[N+]([O-])c1cc(C(F)(F)F)cc([N+](=O)[O-])c1Nc1ncc(Cl)cc1C(F)(F)F` [compound 27], in the assay on Pyricularia orzae, the pest or weed control at 100 ppm turned out to be 100%. Moreover, the mortality at 800 ppm in the assay with Tetranychus telarius (L) came to 100%.

With `O=[N+]([O-])c1cc(C(F)(F)F)cc([N+](=O)[O-])c1Nc1ncc(Br)cc1C(F)(F)F` [compound 28], the pest or weed control at 100 ppm in the assay on Pyricularia orzae came out at 100%. Also, the mortality at 800 ppm in the assay on Tetranychus telarius (L) was 100%.

Consider `O=[N+]([O-])c1cc(C(F)(F)F)c(Cl)c([N+](=O)[O-])c1Nc1ncc(Cl)cc1C(F)(F)F` [compound 29], for which the pest or weed control at 100 ppm in the assay with Rhizoctonia solani and in the assay with Pyricularia orzae was 100% in each case. The mortality at 800 ppm with Plutella xylostella and in the assay with Tetranychus telarius (L) was 100% in each case. The same compound returned a pest or weed control at 250 ppm with Botrytis cinerea of 100%.

As for `O=[N+]([O-])c1cc(C(F)(F)F)c(Cl)c([N+](=O)[O-])c1Nc1ncc(Br)cc1C(F)(F)F` [compound 30], the pest or weed control at 100 ppm with Rhizoctonia solani was determined as 95%; with Pyricularia orzae it was 100%. This compound also yielded a pest or weed control at 250 ppm in the assay with Botrytis cinerea of 100%.

For `O=[N+]([O-])c1cc(C(F)(F)F)c(Cl)c([N+](=O)[O-])c1Nc1nc(Cl)c(Br)cc1C(F)(F)F` [compound 31], in the assay on Rhizoctonia solani, the pest or weed control at 100 ppm came to 90%. Also, in the assay with Sphaerotheca fuliginea, the pest or weed control at 500 ppm was found to be 100%.

As to `O=[N+]([O-])c1cc(C(F)(F)F)cc([N+](=O)[O-])c1Nc1nc(Cl)c(C(F)(F)F)cc1Br` [compound 32], the pest or weed control at 100 ppm with Rhizoctonia solani and in the assay with Pyricularia orzae was 100% in each case. Also, the pest or weed control at 500 ppm in the assay on Sphaerotheca fuliginea is 100%.

For the compound `O=[N+]([O-])c1cc(C(F)(F)F)c(Cl)c([N+](=O)[O-])c1Nc1nc(Cl)c(C(F)(F)F)cc1Cl` [compound 35], the pest or weed control at 100 ppm in the assay with Rhizoctonia solani is 100%; with Pyricularia orzae it was 95%. The compound also came in with a pest or weed control at 250 ppm with Botrytis cinerea of 100%.

Take `O=[N+]([O-])c1cc(C(F)(F)F)c(Cl)c([N+](=O)[O-])c1Nc1ncccc1C(F)(F)F` [compound 36]: the pest or weed control at 100 ppm with Rhizoctonia solani is 92%; with Pyricularia orzae it was 100%. The same compound showed a pest or weed control at 250 ppm in the assay with Botrytis cinerea of 96%.

Turning to `O=[N+]([O-])c1cc(C(F)(F)F)cc([N+](=O)[O-])c1Nc1ncccc1C(F)(F)F` [compound 37], the pest or weed control at 100 ppm in the assay with Rhizoctonia solani and with Pyricularia orzae was 100% throughout. Also, the mortality at 800 ppm with Tetranychus telarius (L) amounted to 100%. This compound showed a pest or weed control at 250 ppm in the assay on Botrytis cinerea of 93%.

With `COc1c(C(F)(F)F)cc([N+](=O)[O-])c(Nc2ncc(C(F)(F)F)cc2Cl)c1[N+](=O)[O-]` [compound 39], the pest or weed control at 100 ppm with Rhizoctonia solani and in the assay on Pyricularia orzae was 100% throughout. For the same compound, the mortality at 800 ppm in the assay with Tetranychus telarius (L) came to 100%.

As for `CCOc1c(C(F)(F)F)cc([N+](=O)[O-])c(Nc2ncc(C(F)(F)F)cc2Cl)c1[N+](=O)[O-]` [compound 40, N-(3-chloro-5-trifluoromethyl-2-pyridyl)-2,6-dinitro-3-ethoxy-4-trifluoromethylaniline], the pest or weed control at 100 ppm in the assay with Rhizoctonia solani and in the assay with Pyricularia orzae was 100% throughout. Moreover, the mortality at 800 ppm in the assay with Plutella xylostella and in the assay on Tetranychus telarius (L) was 100% each time.

`CCCOc1c(C(F)(F)F)cc([N+](=O)[O-])c(Nc2ncc(C(F)(F)F)cc2Cl)c1[N+](=O)[O-]` [compound 41]: the pest or weed control at 100 ppm in the assay with Rhizoctonia solani and in the assay on Pyricularia orzae was 95% in each case. Also, the mortality at 800 ppm in the assay with Plutella xylostella and with Tetranychus telarius (L) was 100% in each case.

With `O=[N+]([O-])c1cc(C(F)(F)F)c(Oc2ccc(O)cc2)c([N+](=O)[O-])c1Nc1ncc(C(F)(F)F)cc1Cl` [compound 49], the pest or weed control at 100 ppm with Rhizoctonia solani amounted to 100%. Moreover, the mortality at 800 ppm in the assay on Tetranychus telarius (L) was found to be 100%. This compound also had a pest or weed control at 250 ppm in the assay with Botrytis cinerea of 100%.

In the case of `O=[N+]([O-])c1cc([N+](=O)[O-])c(Nc2ccc(Cl)cn2)c(C(F)(F)F)c1` [compound 52], the mortality at 400 µg/dish with Callosobruchus chinensis was 100%. For the same compound, the mortality at 800 ppm in the assay with Plutella xylostella was 100%.

Turning to `O=[N+]([O-])c1cc([N+](=O)[O-])c(Nc2ccc(Br)cn2)c(C(F)(F)F)c1` [compound 54], in the assay on Callosobruchus chinensis, the mortality at 400 µg/dish stood at 100%. In addition, the pest or weed control at 100 ppm with Rhizoctonia solani was determined as 90%. The pest or weed control at 50 ppm with Pyricularia orzae stood at 100%.

Turning to `O=[N+]([O-])c1cc([N+](=O)[O-])c(Nc2nc(Cl)ccc2C(F)(F)F)c(C(F)(F)F)c1` [compound 66, N-(2-chloro-5-trifluoromethyl-6-pyridyl)-2,4-dinitro-6-trifluoromethylaniline], the mortality at 800 ppm in the assay with Plutella xylostella came to 100%. The pest or weed control at 100 ppm in the assay on Sphaerotheca fuliginea (100 ppm) worked out at 100%.

In the case of `O=[N+]([O-])c1cc([N+](=O)[O-])c(Nc2ccc(C(F)(F)F)c(Cl)n2)c(C(F)(F)F)c1` [compound 70], the mortality at 400 µg/dish with Callosobruchus chinensis was found to be 100%. In the assay on Plutella xylostella, the mortality at 800 ppm stood at 100%.

With `Cc1nc(Nc2c([N+](=O)[O-])cc([N+](=O)[O-])cc2C(F)(F)F)c(Cl)c(C)c1Cl` [compound 77, N-(3,5-dichloro-4,6-dimethyl-2-pyridyl)-2,4-dinitro-6-trifluoromethylaniline], the mortality at 400 µg/dish with Callosobruchus chinensis was found to be 100%. In addition, the mortality at 800 ppm with Plutella xylostella was 100%.

With `O=[N+]([O-])c1cc([N+](=O)[O-])c(Nc2ncccc2C(F)(F)F)c(C(F)(F)F)c1` [compound 81], the mortality at 400 µg/dish in the assay with Callosobruchus chinensis is 100%. Also, in the assay with Pyricularia orzae, the pest or weed control at 50 ppm amounted to 100%. In the assay with Plutella xylostella, the mortality at 800 ppm came out at 100%.

With `O=[N+]([O-])c1cc(C(F)(F)F)cc(C(F)(F)F)c1Nc1ncc(C(F)(F)F)cc1Cl` [compound 89], in the assay with Tetranychus telarius (L), the mortality at 800 ppm stood at 100%.

Consider `O=[N+]([O-])c1cc(C(F)(F)F)cc(C(F)(F)F)c1Nc1ncc(Cl)cc1Cl` [compound 90], for which the mortality at 800 ppm with Tetranychus telarius (L) turned out to be 100%.

The values above are taken from patent US4331670A (priority 1979, dated 1982).
